From patent publication US4849429A, “Certain 1,4-dihydro-2,6-dilower-alkyl-4-(mono-substituted pyridyl) useful for treating coronary artery or cerebral artery disease” (The Green Cross Corporation, priority 1985, dated 1989) come the findings set out here.

Read-outs that look alike come from different tables or passages of the source.

This test is described as follows: Test 2: blood pressure depression up to 24 hours and duration until 50% recovery, oral. Format: in vivo, Male, spontaneously hypertension-developing rats. The note with it: for response vs control in vivo at 25 mg/kg: Rattus norvegicus, percent based on that before administration (100); for Duration 50% recovery: duration until pressure recovered to 50% from the maximum depression value. Here is the method:
Male, spontaneously hypertension-developing rats of ages of 10 to 11 weeks (in groups of 3 to 5 animals) were used in the test. For blood pressure determination, systolic pressure was measured without anesthesia by an indirect tail-cuff method using a sphygmomanometer (PE-300, Narco Bio-System).

[1] abbreviates: 1h after oral administration, read-out: Depression value (%) of blood pressure, 1h.
The mark [2] stands for this setting: 2h after oral administration, read-out: Depression value (%) of blood pressure, 2h.
Setting [3] is: 4h after oral administration, read-out: Depression value (%) of blood pressure, 4h.
The mark [4] stands for this setting: 7h after oral administration, read-out: Depression value (%) of blood pressure, 7h.
Setting [5] is: 24h after oral administration, read-out: Depression value (%) of blood pressure, 24h.
[6] abbreviates: maximum lowering, read-out: Depression value (%) of blood pressure, Max.

Take `COC(=O)C1=C(C)NC(C)=C(C(=O)OCCN(C)Cc2ccccc2)C1c1ncccc1[N+](=O)[O-]` (stereo not drawn) [(1), 2,6-Dimethyl-4-(3-nitro-2-pyridyl)-1,4-dihydropyridine-3,5-dicarboxylicacid 3-β-(N-benzyl-N-methylamino)ethyl ester 5-methyl ester]: the “Duration 50% recovery” value is recorded as 8.7 h. The response vs control in vivo at 25 mg/kg under setting [1] amounted to 65%. Also, under setting [2], the response vs control in vivo at 25 mg/kg is 68%. For the same compound, under setting [3], the response vs control in vivo at 25 mg/kg was determined as 76%. Besides, the response vs control in vivo at 25 mg/kg under setting [4] was 81%. Under setting [5], the response vs control in vivo at 25 mg/kg was 96%. The response vs control in vivo at 25 mg/kg under setting [6] amounted to 65%.

On to `COC(=O)C1=C(C)NC(C)=C(C(=O)OCCN(C)Cc2ccccc2)C1c1cc(Br)ccn1` (stereo not drawn) [(2), 2,6-Dimethyl-4-(4-bromo-2-pyridyl)-1,4-dihydropyridine-3,5-dicarboxylicacid 3-β-(N-benzyl-N-methylamino)ethyl ester 5-methyl ester], for which the “Duration 50% recovery” value stood at 5.8 h. Besides, under setting [1], the response vs control in vivo at 25 mg/kg came out at 70%. For the same compound, the response vs control in vivo at 25 mg/kg under setting [2] is 76%. Further, under setting [3], the response vs control in vivo at 25 mg/kg is 75%. The response vs control in vivo at 25 mg/kg under setting [4] came to 92%. Further, the response vs control in vivo at 25 mg/kg under setting [5] amounted to 102%. Under setting [6], the response vs control in vivo at 25 mg/kg came to 70%.

In the case of `COC(=O)C1=C(C)NC(C)=C(C(=O)OCCN(C)Cc2ccccc2)C1c1cc(C#N)ccn1` (stereo not drawn) [(3), 2,6-Dimethyl-4-(4-cyano-2-pyridyl)-1,4-dihydropyridyne-3,5-dicarboxylicacid 3-β-(N-benzyl-N-methylamino)ethyl ester 5-methyl ester], the “Duration 50% recovery” value is recorded as 7.0 h. Further, the response vs control in vivo at 25 mg/kg under setting [1] is 61%. Moreover, the response vs control in vivo at 25 mg/kg under setting [2] is 66%. In addition, the response vs control in vivo at 25 mg/kg under setting [3] turned out to be 74%. The response vs control in vivo at 25 mg/kg under setting [4] is 82%. Besides, under setting [5], the response vs control in vivo at 25 mg/kg is 95%. Also, under setting [6], the response vs control in vivo at 25 mg/kg turned out to be 61%.

In the case of `COC(=O)C1=C(C)NC(C)=C(C(=O)OCCN(C)Cc2ccccc2)C1c1cccc(Cl)n1` (stereo not drawn) [(7), 2,6-Dimethyl-4-(6-chloro-2-pyridyl)-1,4-dihydropyridine-3,5-dicarboxylic a cid 3-β-(N-benzyl-N-methylamino)ethyl ester 5-methyl ester], the “Duration 50% recovery” value stood at 6.0 h. Besides, the response vs control in vivo at 25 mg/kg under setting [1] came to 83%. For the same compound, the response vs control in vivo at 25 mg/kg under setting [2] was 84%. Under setting [3], the response vs control in vivo at 25 mg/kg is 87%. For the same compound, the response vs control in vivo at 25 mg/kg under setting [4] was 93%. Also, the response vs control in vivo at 25 mg/kg under setting [5] was found to be 101%. The response vs control in vivo at 25 mg/kg under setting [6] was 83%.

As to `COC(=O)C1=C(C)NC(C)=C(C(=O)OCCN(C)Cc2ccccc2)C1c1cccc(C(F)(F)F)n1` (stereo not drawn) [(9), 2,6-Dimethyl-4-(6-trifluoromethyl-2-pyridyl)-1,4-dihydropyridine-3,5-dicarboxylic acid 3-β-(N-benzyl-N-methylamino)ethyl ester 5-methyl ester], the “Duration 50% recovery” value is 4.6 h. In addition, the response vs control in vivo at 25 mg/kg under setting [1] worked out at 85%. Moreover, the response vs control in vivo at 25 mg/kg under setting [2] was determined as 92%. Also, the response vs control in vivo at 25 mg/kg under setting [3] was 91%. The response vs control in vivo at 25 mg/kg under setting [4] is 104%. The response vs control in vivo at 25 mg/kg under setting [5] was 119%. The response vs control in vivo at 25 mg/kg under setting [6] amounted to 85%.

`COC(=O)C1=C(C)NC(C)=C(C(=O)OCCN(C)Cc2ccccc2)C1c1cccc([N+](=O)[O-])n1` (stereo not drawn) [(10), 2,6-Dimethyl-4-(6-nitro-2-pyridyl)-1,4-dihydropyridine-3,5-dicarboxylic ac id 3-β-(N-benzyl-N-methylamino)ethyl ester 5-methyl ester]: the “Duration 50% recovery” value stood at 2.4 h. Moreover, under setting [1], the response vs control in vivo at 25 mg/kg came to 99%. In addition, under setting [2], the response vs control in vivo at 25 mg/kg came out at 95%. The response vs control in vivo at 25 mg/kg under setting [3] came out at 107%. Besides, the response vs control in vivo at 25 mg/kg under setting [4] was determined as 110%. Moreover, under setting [5], the response vs control in vivo at 25 mg/kg was found to be 120%. The response vs control in vivo at 25 mg/kg under setting [6] was 95%.

On to `COC(=O)C1=C(C)NC(C)=C(C(=O)OCCN(C)Cc2ccccc2)C1c1cccnc1Br` (centres unmarked) [(11)], for which the “Duration 50% recovery” value came out at 6.7 h. In addition, the response vs control in vivo at 25 mg/kg under setting [1] worked out at 83%. Also, the response vs control in vivo at 25 mg/kg under setting [2] was determined as 82%. Besides, the response vs control in vivo at 25 mg/kg under setting [3] turned out to be 87%. For the same compound, the response vs control in vivo at 25 mg/kg under setting [4] came to 91%. In addition, under setting [5], the response vs control in vivo at 25 mg/kg was 97%. For the same compound, the response vs control in vivo at 25 mg/kg under setting [6] was determined as 82%.

For `COC(=O)C1=C(C)NC(C)=C(C(=O)OCCN(C)Cc2ccccc2)C1c1cccnc1C#N` (stereo not drawn) [(12), 2,6-Dimethyl-4-(2-cyano-3-pyridyl)-1,4-dihydropyridine-3,5-dicarboxylic ac id 3-β-(N-benzyl-N-methylamino)ethyl ester 5-methyl ester], the “Duration 50% recovery” value is 5.6 h. The response vs control in vivo at 25 mg/kg under setting [1] is 66%. Under setting [2], the response vs control in vivo at 25 mg/kg was determined as 71%. For the same compound, the response vs control in vivo at 25 mg/kg under setting [3] is 76%. Moreover, under setting [4], the response vs control in vivo at 25 mg/kg came to 88%. In addition, the response vs control in vivo at 25 mg/kg under setting [5] was determined as 98%. The response vs control in vivo at 25 mg/kg under setting [6] amounted to 66%.

In the case of `COC(=O)C1=C(C)NC(C)=C(C(=O)OCCN(C)Cc2ccccc2)C1c1cccnc1C(F)(F)F` (stereo not drawn) [(13), 2,6-Dimethyl-4-(2-trifluoromethyl-3-pyridyl)-1,4-dihydropyridine-3,5-dicarboxylic acid 3-β-(benzyl-N-methylamino)ethyl ester 5-methyl ester], the “Duration 50% recovery” value amounted to 16.2 h. Under setting [1], the response vs control in vivo at 25 mg/kg was found to be 73%. The response vs control in vivo at 25 mg/kg under setting [2] was determined as 67%. In addition, the response vs control in vivo at 25 mg/kg under setting [3] was determined as 67%. For the same compound, the response vs control in vivo at 25 mg/kg under setting [4] is 71%. Besides, the response vs control in vivo at 25 mg/kg under setting [5] worked out at 94%. Moreover, the response vs control in vivo at 25 mg/kg under setting [6] was found to be 67%.

With `COC(=O)C1=C(C)NC(C)=C(C(=O)OCCN(C)Cc2ccccc2)C1c1cncc(Br)c1` (stereo not drawn) [(14), 2,6-Dimethyl-4-(5-bromo-3-pyridyl)-1,4-dihydropyridine-3,5-dicarboxylic ac id 3-β-(N-benzyl-N-methylamino)ethyl ester 5-methyl ester], the “Duration 50% recovery” value was 9.3 h. Moreover, the response vs control in vivo at 25 mg/kg under setting [1] was found to be 83%. In addition, the response vs control in vivo at 25 mg/kg under setting [2] worked out at 91%. Moreover, the response vs control in vivo at 25 mg/kg under setting [3] came to 90%. In addition, the response vs control in vivo at 25 mg/kg under setting [4] was 90%. Further, under setting [5], the response vs control in vivo at 25 mg/kg stood at 101%. Besides, the response vs control in vivo at 25 mg/kg under setting [6] came out at 83%.

With `COC(=O)C1=C(C)NC(C)=C(C(=O)OCCN(C)Cc2ccccc2)C1c1ccc(C#N)nc1` (stereo not drawn) [(15), 2,6-Dimethyl-4-(6-cyano-3-pyridyl)-1,4-dihydropyridine-3,5-dicarboxylic ac id 3-β-(N-benzyl-N-methylamino)ethyl ester 5-methyl ester], the “Duration 50% recovery” value is reported as 15.1 h. Further, the response vs control in vivo at 25 mg/kg under setting [1] came to 88%. Under setting [2], the response vs control in vivo at 25 mg/kg was 90%. Further, the response vs control in vivo at 25 mg/kg under setting [3] was found to be 83%. Under setting [4], the response vs control in vivo at 25 mg/kg is 89%. Besides, the response vs control in vivo at 25 mg/kg under setting [5] is 95%. The response vs control in vivo at 25 mg/kg under setting [6] was 83%.
